Results: publication PMC11059360 (Nature Communications, 2024)

Biological target: T1, SLC26A2 (Homo sapiens, UniProt P50443)
T1 construct: full length, N-terminal His-tag and thrombin site (tag digested with thrombin for cryo-EM); Expi293F, BacMam; LMNG; homodimer; model covers residues 52-724
T1 sequence (P50443 1-739): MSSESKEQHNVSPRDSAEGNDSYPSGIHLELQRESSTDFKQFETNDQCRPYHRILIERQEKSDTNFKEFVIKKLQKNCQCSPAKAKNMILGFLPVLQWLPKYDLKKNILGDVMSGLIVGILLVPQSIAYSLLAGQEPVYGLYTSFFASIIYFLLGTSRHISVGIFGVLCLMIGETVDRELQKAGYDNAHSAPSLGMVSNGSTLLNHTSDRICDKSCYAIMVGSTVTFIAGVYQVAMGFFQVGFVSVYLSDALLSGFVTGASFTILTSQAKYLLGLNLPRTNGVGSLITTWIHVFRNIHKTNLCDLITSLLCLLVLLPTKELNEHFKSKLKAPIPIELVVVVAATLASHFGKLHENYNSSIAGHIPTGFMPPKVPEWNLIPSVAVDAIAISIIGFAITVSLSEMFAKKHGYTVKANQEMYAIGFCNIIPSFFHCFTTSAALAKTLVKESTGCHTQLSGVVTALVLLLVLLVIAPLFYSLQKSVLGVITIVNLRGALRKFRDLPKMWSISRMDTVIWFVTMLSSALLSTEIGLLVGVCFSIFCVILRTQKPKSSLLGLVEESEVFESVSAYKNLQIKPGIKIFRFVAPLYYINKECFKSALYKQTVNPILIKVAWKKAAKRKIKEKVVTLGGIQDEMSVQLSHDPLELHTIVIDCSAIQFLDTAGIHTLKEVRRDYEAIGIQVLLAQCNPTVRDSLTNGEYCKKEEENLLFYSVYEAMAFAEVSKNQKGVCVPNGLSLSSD
Experiment: cryo-EM structure of the complex
Type: binding
Details: pH 7.5, LMNG

SMILES | cryo-EM structure of the complex (50 mM K2C2O4, no NaCl, weak density outside the canonical pocket, between TM5 and TM12) | cryo-EM structure of the complex (150 mM NaCl, canonical TM3/TM10 pocket, inward-facing)
O=C(O)C(=O)O [C2O4^2−] | weak densities outside the pocket | –
Cl [Cl^−] | – | we identified a distinct density corresponding to the Cl^- ion in this cleft
